From patent US20210330611A1, “THERAPY FOR NEUROLOGICAL DISEASES/DISORDERS” (priority 2020, published 2021)
Where a name gives a salt, the structure may show the parent alone. Read-outs that look alike come from different tables or passages of the source. Where a SMILES comes first, the peptide text is derived from it. [ ]: non-standard residue; d: D form. pGlu = O=C1CC[C@@H](C(=O)O)N1; Thz = O=C(O)[C@@H]1CSCN1

What was measured:
[1] = tested on: primary rat microglia; test: Cell toxicity (dead cells, size <150 μm2) in coated fibrin (cFib) assay; settings: primary microglia HTS;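 further: share of dead cells sized under 150 µm2 at 10 µM in fibrin-stimulated microglia HTS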
[2] = tested on: LPS-induced microglia activation; test: Image-based assay of LPS-induced microglia activation (HTS and dose response); format: cell-based, rat; settings: for inhibition at 10 µM: Rattus norvegicus, Microglia, read-out: LPS % inhibition
[3] = tested on: fibrin-induced microglia activation; test: Image-based assay of fibrin-induced microglia activation (HTS and dose response); format: cell-based, rat; settings: primary microglia HTS, fibrin stimulation; for inhibition at 10 µM: Rattus norvegicus, Microglia, read-out: Fibrin % inhibition
[4] = tested on: fibrin- and LPS-induced microglia activation; test: cells; format: cell-based, rat
[5] = tested on: primary rat microglia
[6] = fibrin assay, dead cells (size <150 μm2), compounds at 10 μM
[7] = primary microglia HTS, LPS stimulation, compounds at 10 μM
[8] = classification by fibrin and LPS inhibition, HTS at 10 μM
[9] = fibrin assay, dead cells (size <150 μm2)
[10] = quadrant by fibrin and LPS inhibition, HTS at 10 μM
[11] = fibrin stimulation, cell size <150 μm2 as marker of toxicity
[12] = cell size >800 μm2 as marker of activation
[13] = classification by fibrin and LPS inhibition in HTS

Row | Structure (SMILES) | Fibrin % cell toxicity [1, 6] [%] | inhibition at 10 µM [2, 7] [%] | inhibition at 10 µM ([3]; compounds at 10 μM) [%] | Quadrant (FIG. 5b) [4, 8] | LPS % cell toxicity ([5]; rat) [%] | also measured
1 | c1ccc2c(c1)sc1ccccc12 [Dibenzothiophene] | 0 | 14 | -21 | Q4 | 0 | 
2 | CCC1(c2ccc(N)cc2)CCC(=O)NC1=O (racemic) |  |  |  |  |  | Fibrin % cell toxicity [1, 9]: 0%; LPS % inhibition [2, 7]: 6%; Fibrin % inhibition ([3]; compounds at 10 μM): 3%; Quadrant (FIG. 5b) [4, 10]: Q4; LPS % cell toxicity [5]: 0%
3 | CC1(C)S[C@@H]2[C@H](NC(=O)[C@H](NC(=O)N3CCNC3=O)c3ccccc3)C(=O)N2[C@H]1C(=O)O [Azlocillin Sodium] |  |  |  |  | 0 | Fibrin % cell toxicity [1, 9]: 0%; LPS % inhibition ([2]; primary microglia HTS, LPS stimulation, compounds at 10 μM, 10 µM): 17%; Fibrin % inhibition ([3]; compounds at 10 μM, 10 µM): −5%; Quadrant (FIG. 5b) [4, 10]: Q4
4 | CCN(CC)CCOC(=O)c1ccc(N)cc1 [Procaine, Novocain] |  |  |  |  |  | Fibrin % cell toxicity [1, 11]: 0%; LPS % inhibition [2]: 25%; Fibrin % inhibition [3, 12]: −10%; Quadrant (FIG. 5b) [4, 13]: Q4; LPS % cell toxicity [5]: 0%
5 | CCN(CC)C(=O)N1CCN(C)CC1 [Diethylcarbamazine] | 0 | 11 | -26 | Q4 | 0 | 
6 | COc1ccc(-c2cc(C(F)F)nn2-c2ccc(S(N)(=O)=O)cc2)cc1F [Deracoxib] | 0 | 8 | -34 | Q4 | 0 | 
7 | CC(C)c1c(CN(C)C(C)Cc2ccccc2)n(C)n(-c2ccccc2)c1=O (centres unmarked) [Famprofazone] | 1 | 15 | -3 | Q4 | 0 | 
8 | O=C1CC[C@@H](C(=O)N2CSC[C@H]2C(=O)O)N1 [Pidotimod] ([pGlu]-[Thz]-OH) |  |  |  |  | 0 | Fibrin % cell toxicity [1, 11]: 1%; inhibition at 10 µM ([2]; 48 h): 14%; inhibition at 10 µM [3, 12]: -10%; Quadrant (FIG. 5b) [4, 13]: Q4
9 | CCCCCCCCCCCCCCCCCCCCCCO [Docosanol] | 0 | -2 | -10 | Q4 | 0 | 
10 | O=[N+]([O-])c1cc([As](=O)(O)O)ccc1O [Roxarsone] |  |  |  |  | 1 | Fibrin % cell toxicity [1, 11]: 1%; LPS % inhibition [2]: 17%; Fibrin % inhibition [3, 12]: −18%; Quadrant (FIG. 5b) [4, 13]: Q4
11 | O=C(O)CCC(=O)c1ccc(-c2ccccc2)cc1 [Fenbufen] | 0 | 25 | 3 | Q4 | 0 | 
12 | NC(=O)OCC(COC(N)=O)c1ccccc1 [Felbamate] | 1 | 0 | -32 | Q4 | 0 | 
13 | CC(=O)NCCCS(=O)(=O)[O-].CC(=O)NCCCS(=O)(=O)[O-].[Ca+2] [Acamprosate Calcium] |  |  |  |  |  | Fibrin % cell toxicity [1, 9]: 1%; LPS % inhibition [2, 7]: 22%; Fibrin % inhibition ([3]; compounds at 10 μM): 12%; Quadrant (FIG. 5b) [4, 10]: Q4; LPS % cell toxicity [5]: 0%
14 | O=C(O)c1cc(=O)c2c(OCC(O)COc3cccc4oc(C(=O)O)cc(=O)c34)cccc2o1 [Cromoglicic acid] | 0 | 8 | -28 | Q4 | 0 | 
15 | CN(C)[C@@H]1C(O)=C(C(=O)NCN2CCCC2)C(=O)[C@@]2(O)C(O)=C3C(=O)c4c(O)cccc4[C@@](C)(O)[C@H]3C[C@@H]12 [Rolitetracycline] |  |  |  |  | 0 | Fibrin % cell toxicity [1, 11]: 1%; inhibition at 10 µM ([2]; 48 h): 9%; inhibition at 10 µM [3, 12]: 4%; Quadrant (FIG. 5b) [4, 13]: Q4
16 | CC(C)N(CCC(C(N)=O)(c1ccccc1)c1ccccn1)C(C)C (centres unmarked) [Disopyramide] | 1 | 1 | -13 | Q4 | 0 | 
17 | CCCCCCOc1ccccc1C(N)=O [Exalamide] | 1 | 18 | -15 | Q4 | 0 | 

Row | Structure (SMILES) | Fibrin % cell toxicity [1, 6] [%] | inhibition at 10 µM [2, 7] [%] | inhibition at 10 µM ([3]; compounds at 10 μM) [%] | Quadrant (FIG. 5b) [4, 8] | LPS % cell toxicity ([5]; rat) [%] | also measured
18 | CC1(C)C2CCC1(CS(=O)(=O)O)C(=O)C2=Cc1ccc(C=C2C(=O)C3(CS(=O)(=O)O)CCC2C3(C)C)cc1 [Ecamsule] | 1 |  |  | Q4 |  | LPS % inhibition [2, 7]: 29%; Fibrin % inhibition ([3]; compounds at 10 μM): 20%; LPS % cell toxicity [5]: 0%
19 | CCc1ccc(CCOc2ccc(CC3SC(=O)NC3=O)cc2)nc1 (centres unmarked) [Pioglitazone] |  |  |  |  | 1 | Fibrin % cell toxicity [1, 11]: 1%; inhibition at 10 µM ([2]; 48 h): 33%; inhibition at 10 µM [3, 12]: 2%; Quadrant (FIG. 5b) [4, 13]: Q4
20 | C[C@]12CC[C@@H]3c4ccc(OC(=O)c5ccccc5)cc4CC[C@H]3[C@@H]1CC[C@@H]2O [Estradiol Benzoate] | 1 | 8 | -3 | Q4 | 0 | 
21 | NC(Cc1ccc(Cl)cc1)C(=O)O (racemic) [(±)-p-chlorophenylalanine, Fenclonine] |  |  |  |  |  | Fibrin % cell toxicity [1, 9]: 1%; LPS % inhibition [2, 7]: 5%; Fibrin % inhibition ([3]; compounds at 10 μM): 16%; Quadrant (FIG. 5b) [4, 10]: Q4; LPS % cell toxicity [5]: 0%
22 | CC1(C)O[C@@H]2C[C@H]3[C@@H]4CCC5=CC(=O)C=C[C@]5(C)[C@@]4(F)[C@@H](O)C[C@]3(C)[C@]2(C(=O)CO)O1 [Triamcinolone Acetonide] |  | 104 | 111 |  | 4 | Fibrin % cell toxicity [1, 9]: 4%; Quadrant (FIG. 5b) [4, 10]: Q2
23 | Cc1ccccc1N1CCN(CCc2nnc3n2CCCC3)CC1 [Dapiprazole] | 1 | 14 | -9 | Q4 | 0 | 
24 | C#C[C@]1(O)CC[C@H]2[C@@H]3CCc4cc(OC5CCCC5)ccc4[C@H]3CC[C@@]21C [Quinestrol] |  |  |  |  | 0 | Fibrin % cell toxicity [1, 11]: 0%; inhibition at 10 µM ([2]; 48 h): 24%; inhibition at 10 µM [3, 12]: 15%; Quadrant (FIG. 5b) [4, 13]: Q4
25 | C[N+](C)(C)CCCCCCCCCC[N+](C)(C)C [Decamethonium] | 0 | 17 | 1 | Q4 | 0 | 
26 | c1ccc2c(c1)Nc1ccccc1S2 [Phenothiazine] |  |  |  |  | 1 | Fibrin % cell toxicity [1, 11]: 0%; inhibition at 10 µM ([2]; 48 h): 24%; inhibition at 10 µM [3, 12]: -84%; Quadrant (FIG. 5b) [4, 13]: Q4
27 | O=C(Nc1ccccc1)OCC(CN1CCCCC1)OC(=O)Nc1ccccc1 (centres unmarked) [Diperodon Hydrochloride] | 1 | 26 | 42 | Q4 | 1 | 
28 | Nc1ncnc2c1ncn2[C@@H]1O[C@H](CO)[C@@H](O)[C@H]1O [Adenosine] |  | 3 | -6 |  | 1 | Fibrin % cell toxicity [1, 9]: 1%; Quadrant (FIG. 5b) [4, 10]: Q4
29 | CC/C=C\C/C=C\C/C=C\C/C=C\C/C=C\C/C=C\CCC(=O)O [Doconexent] | 1 | 11 | 3 | Q4 | 0 | 
30 | CC(C(=O)O)c1ccc2c(c1)Cc1cccnc1O2 (centres unmarked) [Pranoprofen] |  |  |  |  | 0 | Fibrin % cell toxicity [1, 11]: 1%; inhibition at 10 µM ([2]; 48 h, primary microglia HTS, LPS stimulation, cell size >800 μm2 as marker of activation): 8%; inhibition at 10 µM [3, 12]: -14%; Quadrant (FIG. 5b) [4, 13]: Q4
31 | O=C(O)c1cn(-c2ccc(F)cc2)c2cc(N3CCNCC3)c(F)cc2c1=O [Sarafloxacin] |  |  |  |  | 0 | Fibrin % cell toxicity [1, 11]: 0%; inhibition at 10 µM ([2]; 48 h): 4%; inhibition at 10 µM [3, 12]: 2%; Quadrant (FIG. 5b) [4, 13]: Q4
32 | CCOC(=O)CCC(=O)O[C@H]1[C@H](O[C@@H]2[C@@H](C)[C@H](O[C@H]3C[C@@](C)(OC)[C@@H](O)[C@H](C)O3)[C@@H](C)C(=O)O[C@H](CC)[C@@](C)(O)[C@H](O)[C@@H](C)C(=O)[C@H](C)C[C@@]2(C)O)O[C@H](C)C[C@@H]1N(C)C [Erythromycin Ethylsuccinate] | 0 | 14 | -14 | Q4 | 0 | 
33 | N=C(N)c1ccc(/N=N/Nc2ccc(C(=N)N)cc2)cc1 [Diminazene] | 0 | 11 | -58 | Q4 | 0 | 
34 | N=C(N)NN [Aminoguanidine] |  | 12 | -25 |  | 0 | Fibrin % cell toxicity [1, 9]: 0%; Quadrant (FIG. 5b) [4, 10]: Q4
